Laboratory results as given in the Kinase Knowledgebase extract (Sharma et al. 2016).

target: MAPK14 (human) (UniProt Q16539); assay: Inhibition of MAPK14 Kinase Activity
Sequence (Q16539 whole entry, looked up): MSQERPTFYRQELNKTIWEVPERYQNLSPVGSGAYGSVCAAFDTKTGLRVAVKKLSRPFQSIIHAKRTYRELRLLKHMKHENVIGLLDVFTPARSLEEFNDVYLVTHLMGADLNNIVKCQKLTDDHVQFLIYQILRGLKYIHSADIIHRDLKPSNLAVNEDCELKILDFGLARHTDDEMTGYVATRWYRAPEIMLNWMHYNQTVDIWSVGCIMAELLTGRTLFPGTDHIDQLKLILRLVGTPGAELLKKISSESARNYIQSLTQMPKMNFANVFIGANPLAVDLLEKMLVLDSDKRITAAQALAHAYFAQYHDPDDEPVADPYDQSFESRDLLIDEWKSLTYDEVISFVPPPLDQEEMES

Compound | IC50 [nM]
CCN(CC)CCOc1ccccc1C(C)(C)Nc1nccn(-c2cc(C(=O)NC3CC3)ccc2C)c1=O | 0.631
Cc1ccc(C(=O)NC2CC2)cc1-n1ccnc(N[C@@H](c2ccccc2)[C@@H](C)CN2CCC(C(N)=O)CC2)c1=O | 0.631
Cc1ccc(C(=O)NC2CC2)cc1-n1ccnc(N[C@H](CC(=O)N2CCN(C)CC2)c2ccccc2)c1=O | 25.1
Cc1ccc(C(=O)NC2CC2)cc1-n1ccnc(NCc2ccc(CNC(=O)OC(C)(C)C)cc2)c1=O | 501
CNCCCOc1ccccc1[C@H]1CCCN1c1nccn(-c2cc(C(=O)NC3CC3)ccc2C)c1=O | 1.26
Cc1ccc(C(=O)NC2CC2)cc1-n1ccnc(N[C@H](CC(=O)OC(C)(C)C)c2ccccc2)c1=O | 20
CCC(CC)(Nc1nccn(-c2cc(C(=O)NC3CC3)ccc2C)c1=O)c1ccccc1OCCNC | 0.398
Cc1ccc(C(=O)NC2CC2)cc1-n1ccnc(N[C@@H](c2ccccc2)[C@@H](C)CN2CCCN(C)CC2)c1=O | 1
CNCCCOc1ccccc1[C@@H]1CCCN1c1nccn(-c2cc(C(=O)NC3CC3)ccc2C)c1=O | 25.1
Cc1ccc(C(=O)NC2CC2)cc1-n1ccnc(NCC2Cc3ccccc3CN2)c1=O (centres undefined) | 126
Cc1ccc(C(=O)NC2CC2)cc1-n1ccnc(NC(c2ccccc2)C2CCN(C)CC2)c1=O (centres undefined) | 251
Cc1ccc(C(=O)NC2CC2)cc1-n1ccnc(NCc2cccc(CNC(=O)OC(C)(C)C)c2)c1=O | 31.6
Cc1ccc(C(=O)NC2CC2)cc1-n1ccnc(NC(CC(=O)NC2CC2)c2ccccc2)c1=O (centres undefined) | 31.6
CCC(C)NC(=O)c1ccc(C)c(-n2ccnc(NCc3ccc(N4CCN(C)CC4)cc3)c2=O)c1 (centres undefined) | 1000
